US10238637B2, “Modulators of the adenosine A3 receptors” (PALOBIOFARMA, S.L., priority 2015, dated 2019)

Experiments:
human A3 receptors = molecular target: T1, human A3 receptors (Homo sapiens, UniProt P0DMS8); assay: Adenosine receptor subtypes competition radioligand binding assay, A3 receptor ([3H]-NECA); conditions: membranes from human A3 receptors transfected to CHO cells, 60 min at 25° C.
T1 construct: purchased Receptor Biology, Inc. (USA); host or cells: CHO cells
T1 sequence (P0DMS8 1-318): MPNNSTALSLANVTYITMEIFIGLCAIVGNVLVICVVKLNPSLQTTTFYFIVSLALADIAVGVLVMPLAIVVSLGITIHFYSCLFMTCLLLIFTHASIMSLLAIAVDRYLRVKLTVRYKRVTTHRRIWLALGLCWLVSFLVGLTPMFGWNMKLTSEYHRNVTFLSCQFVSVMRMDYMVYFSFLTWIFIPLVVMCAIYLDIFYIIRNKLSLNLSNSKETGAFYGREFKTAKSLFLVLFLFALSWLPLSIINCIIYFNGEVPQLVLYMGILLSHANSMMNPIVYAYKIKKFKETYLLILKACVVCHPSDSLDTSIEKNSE
Procedure: (§1) Adenosine Receptor Subtypes Competition Radioligand Binding Assay
(§2) Human recombinant membranes with adenosine receptors were purchased from Receptor Biology, Inc. (USA).
Competitive assays were carried out by incubation of membranes from human A3 receptors transfected to CHO cells, [^3H]-NECA, buffer (20 mM HEPES (pH 7.4), 100 mM NaCl, 10 mM MgCl2, 2 units/ml adenosine deaminase), and unlabelled ligand in a total volume of 0.2 ml for 60 min at 25° C. R-PIA was used to determine nonspecific binding. It was filtered over Schleicher & Schuell GF/52 (presoaked with 0.5% polyethyleneimine) in a Brandel cell harvester. The unbound radioligand was removed with 3×250 μl of 20 mM HEPES (pH 7.4), 100 mM NaCl, 10 mM MgCl2.
In Table 1, binding constants to adenosine A3 receptor obtained for some examples are shown.

adenosine A1 receptor = molecular target: T2, adenosine A1 receptor (Homo sapiens, UniProt P30542); assay: Adenosine receptor subtypes competition radioligand binding assay, A1 receptor; conditions: human recombinant membranes
T2 construct: purchased Receptor Biology, Inc. (USA)
T2 sequence (P30542 1-326): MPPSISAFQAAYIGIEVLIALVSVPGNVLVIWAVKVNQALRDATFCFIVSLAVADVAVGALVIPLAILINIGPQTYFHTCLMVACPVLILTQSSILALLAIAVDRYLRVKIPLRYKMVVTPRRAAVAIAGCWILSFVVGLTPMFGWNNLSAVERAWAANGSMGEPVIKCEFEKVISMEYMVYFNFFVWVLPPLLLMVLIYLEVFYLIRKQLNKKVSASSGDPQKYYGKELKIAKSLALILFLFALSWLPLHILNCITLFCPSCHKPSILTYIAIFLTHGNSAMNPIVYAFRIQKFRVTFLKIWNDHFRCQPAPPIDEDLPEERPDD
Source text: as §1, §2

[1] = test system: intestinal inflammation and spontaneous colitis; conditions: mice; cited from earlier work
[2] = test system: ischemia induced renal failure; conditions: rats, ischemia induced with micro aneurysm clips after pretreatment; cited from earlier work
rheumatoid arthritis = conditions: RA patients, oral administration twice daily for 12 weeks; cited from earlier work
[3] = test system: experimental autoimmune uveitis; conditions: experimental autoimmune uveitis model; cited from earlier work

Ki (human A3 receptors) | Ki (adenosine A1 receptor) | Structure (SMILES) | also measured
12 nM | – | N#Cc1sc(NC(=O)c2ccc(C(=O)O)s2)nc1-c1cc(Cl)cs1 [Example 26, 5-((4-(4-chlorothiophen-2-yl)-5-cyanothiazol-2-yl)carbamoyl)thiophene-2-carboxylic Acid] | –
21 nM | 34 nM | O=C(O)c1ccc(C(=O)Nc2nc(-c3ccccc3)c(Cl)s2)s1 [Example 38, 5-(5-chloro-4-phenylthiazole-2-ylcarbamoyl)thiophene-2-carboxylic Acid] | –
66 nM | 131 nM | N#Cc1sc(NC(=O)c2ccc(C(=O)O)s2)nc1-c1ccc(F)cc1 [Example 13, 5-(5-cyano-4-(4-fluorophenyl)thiazol-2-ylcarbamoyl)thiophene-2-carboxylic Acid] | –
36 nM | – | N#Cc1sc(NC(=O)c2ccc(C(=O)O)s2)nc1-c1cccs1 [Example 25, 5-((5-cyano-4-(thiophen-2-yl)thiazol-2-yl)carbamoyl)thiophene-2-carboxylic Acid] | –
– | – | CNC(=O)[C@H]1O[C@@H](n2cnc3c(NCc4cccc(I)c4)ncnc32)[C@H](O)[C@@H]1O [IB-MECA, N6-(3-iodobenzyl)-adenosine-5′-N-methyluronamide] | Effect on intestinal inflammation and spontaneous colitis [1]: ameliorate intestinal inflammation and spontaneous colitis; Effect of pretreatment on ischemia induced renal failure [2]: harmful; Effect on disease signs and symptoms (rheumatoid arthritis): improvement of disease signs and symptoms; Safety and tolerability (rheumatoid arthritis): safe, well tolerated; Effect on clinical and pathological manifestations of uveitis [3]: inhibited the clinical and pathological manifestations of uveitis
99 nM | > 500 nM | N#Cc1sc(NC(=O)c2ccc(C(=O)O)s2)nc1-c1ccccc1F [Example 15, 5-(5-cyano-4-(2-fluorophenyl)thiazol-2-ylcarbamoyl)thiophene-2-carboxylic Acid] | –
99 nM | > 1000 nM | COc1ccc(-c2nc(NC(=O)c3cccc(C(=O)O)c3)sc2C#N)cn1 [Example 37, 3-(5-cyano-4-(6-methoxypyridin-3-yl)thiazol-2-ylcarbamoyl)benzoic Acid] | –
10 nM | 64 nM | O=C(O)c1ccc(C(=O)Nc2nc(-c3ccccc3)c(F)s2)s1 [Example 41, 5-(5-fluoro-4-phenylthiazol-2-ylcarbamoyl)thiophene-2-carboxylic Acid] | –
10 nM | > 1000 nM | COc1ccc(-c2nc(NC(=O)c3cccc(C(=O)O)c3)sc2C#N)cc1 [Example 6, 3-(5-cyano-4-(4-methoxyphenyl)thiazol-2-ylcarbamoyl)benzoic Acid] | –
66 nM | 87 nM | N#Cc1sc(NC(=O)c2ccc(C(=O)O)s2)nc1-c1ccccc1 [Example 22, 5-(5-cyano-4-phenylthiazol-2-ylcarbamoyl)thiophene-2-carboxylic Acid] | –
23 nM | > 1000 nM | COc1ccc(-c2nc(NC(=O)c3ccc(C(=O)O)s3)sc2C#N)cc1 [Example 8, 5-(5-cyano-4-(4-methoxyphenyl)thiazol-2-ylcarbamoyl)thiophene-2-carboxylic Acid] | –
24 nM | > 1000 nM | COc1ccc(-c2nc(NC(=O)c3ccc(C(=O)O)s3)sc2Cl)cc1 [Example 44, 5-(5-chloro-4-(4-methoxyphenyl)thiazol-2-ylcarbamoyl)thiophene-2-carboxylic Acid] | –
